From ChEMBL document CHEMBL5303573, “Mapping human microbiome drug metabolism by gut bacteria and their genes” (Nature, 2019) come the findings set out here.

Data set [1] in a line: The drug is tested on Bacteroides caccae strain: ATCC43185 for biotransformation. The drug concentrations were measured before and after a 12-h incubation by liquid-chromatography-coupled mass spectrometry (LC–MS). The following applies: 2 µM.
The nature of data set [2]: The drug is tested on Blautia luti strain: DSM14534 for biotransformation. The drug concentrations were measured before and after a 12-h incubation by liquid-chromatography-coupled mass spectrometry (LC–MS). On the set-up: dose 2 uM, timepoint 0 vs 12 hours. It counts as ADME. The following applies: 2 µM.
Data set [3] in a line: The drug is tested on Anaerococcus hydrogenalis strain: DSM7454 for biotransformation. The drug concentrations were measured before and after a 12-h incubation by liquid-chromatography-coupled mass spectrometry (LC–MS). The following applies: 2 µM.
A short description of data set [4]: The drug is tested on Edwardsiella tarda strain: ATCC23685 for biotransformation. The drug concentrations were measured before and after a 12-h incubation by liquid-chromatography-coupled mass spectrometry (LC–MS). The following applies: 2 µM.
Data set [5] is described as follows: The drug is tested on Enterobacter cancerogenus strain: ATCC35316 for biotransformation. The drug concentrations were measured before and after a 12-h incubation by liquid-chromatography-coupled mass spectrometry (LC–MS). The following applies: 2 µM.
Data set [6] is described as follows: The drug is tested on Collinsella aerofaciens strain: ATCC25986 for biotransformation. The drug concentrations were measured before and after a 12-h incubation by liquid-chromatography-coupled mass spectrometry (LC–MS). To be noted: 2 µM.
Data set [7] can be described thus: The drug is tested on Ruminococcus gnavus strain: ATCC29149 for biotransformation. The drug concentrations were measured before and after a 12-h incubation by liquid-chromatography-coupled mass spectrometry (LC–MS). To be noted: mediterraneibacter gnavus, 2 µM.
A short description of data set [8]: The drug is tested on Bacteroides sp. WH2 strain: WH2 for biotransformation. The drug concentrations were measured before and after a 12-h incubation by liquid-chromatography-coupled mass spectrometry (LC–MS). To be noted: bacteroides sp. wh2, 12 h, 2 µM.
The conditions of data set [9]: anaerostipes sp., 12 h, 2 µM.
The nature of data set [10]: The drug is tested on Bacteroides dorei strain: DSM17855 for biotransformation. The drug concentrations were measured before and after a 12-h incubation by liquid-chromatography-coupled mass spectrometry (LC–MS). To be noted: phocaeicola dorei, 2 µM.
Data set [11] is described as follows: The drug is tested on Bacteroides fragilis strain: HMW610 for biotransformation. The drug concentrations were measured before and after a 12-h incubation by liquid-chromatography-coupled mass spectrometry (LC–MS). The following applies: 2 µM.
A short description of data set [12]: The drug is tested on Bifidobacterium ruminantium strain: fecal isolate for biotransformation. The drug concentrations were measured before and after a 12-h incubation by liquid-chromatography-coupled mass spectrometry (LC–MS). To be noted: 2 µM.
The nature of data set [13]: The drug is tested on Alistipes indistinctus strain: DSM22520 for biotransformation. The drug concentrations were measured before and after a 12-h incubation by liquid-chromatography-coupled mass spectrometry (LC–MS). The following applies: 2 µM.
The nature of data set [14]: The drug is tested on Bacteroides finegoldii strain: DSM17565 for biotransformation. The drug concentrations were measured before and after a 12-h incubation by liquid-chromatography-coupled mass spectrometry (LC–MS). The following applies: 2 µM.
The nature of data set [15]: The drug is tested on Ruminococcus torques strain: ATCC27756 for biotransformation. The drug concentrations were measured before and after a 12-h incubation by liquid-chromatography-coupled mass spectrometry (LC–MS). The following applies: 2 µM. It counts as ADME. On the set-up: dose 2 uM, timepoint 0 vs 12 hours.
Data set [16] is described as follows: The drug is tested on Eubacterium rectale strain: ATCC33656 for biotransformation. The drug concentrations were measured before and after a 12-h incubation by liquid-chromatography-coupled mass spectrometry (LC–MS). To be noted: agathobacter rectalis, 2 µM.
For data set [17] the following is noted: enterocloster bolteae, 12 h, 2 µM.
Data set [18] is described as follows: The drug is tested on Bacteroides fragilis strain: HMW615 for biotransformation. The drug concentrations were measured before and after a 12-h incubation by liquid-chromatography-coupled mass spectrometry (LC–MS). The following applies: 2 µM.
A short description of data set [19]: The drug is tested on Coprococcus comes strain: ATCC27758 for biotransformation. The drug concentrations were measured before and after a 12-h incubation by liquid-chromatography-coupled mass spectrometry (LC–MS). It counts as ADME. On the set-up: dose 2 uM, timepoint 0 vs 12 hours. To be noted: 2 µM.

As to `CCN(CC)CC#CCOC(=O)C(O)(c1ccccc1)C1CCCCC1.Cl` (centres undefined) [OXYBUTYNIN CHLORIDE], the “Bacterial Biotransformation” value in data set [1] is reported as “Compound NOT metabolized”; in data set [2] it was “Compound metabolized”; in data set [3], “Compound NOT metabolized”; in data set [4], “Compound metabolized”; in data set [5], “Compound NOT metabolized”; in data set [6], “Compound NOT metabolized”. Moreover, the “Bacterial Biotransformation” value in data set [7] is “Compound NOT metabolized”; in data set [8] it was “Compound NOT metabolized”; in data set [9], “Compound NOT metabolized”; in [10] it was “Compound metabolized”; in data set [11], “Compound metabolized”; in [12], “Compound metabolized”. Also, the “Bacterial Biotransformation” value in [13] was “Compound NOT metabolized”.

Regarding `CN1CCN(C2=Nc3ccccc3Oc3ccc(Cl)cc32)CC1.O=C(O)CCC(=O)O` [LOXAPINE SUCCINATE], the “Bacterial Biotransformation” value in data set [14], in data set [1], in data set [15], in data set [2], in data set [3] and in data set [5] was “Compound NOT metabolized” throughout. Further, the “Bacterial Biotransformation” value in data set [16], in data set [17], in data set [7], in [8], in data set [9] and in data set [10] was “Compound NOT metabolized” each time. Besides, the “Bacterial Biotransformation” value in [18], in [19], in data set [11] and in data set [13] was “Compound NOT metabolized” in each case.

On to `COc1ccc2c3c1O[C@H]1C[C@@H](O)C=C[C@@]31CCN(C)C2` [GALANTAMINE], for which the “Bacterial Biotransformation” value in [1], in [15], in data set [2], in data set [3], in data set [4] and in data set [5] was “Compound NOT metabolized” each time. Besides, the “Bacterial Biotransformation” value in data set [17] is on record as “Compound NOT metabolized”; in [6], “Compound NOT metabolized”; in data set [7], “Compound NOT metabolized”; in [8], “Compound metabolized”; in data set [9], “Compound metabolized”; in [10], “Compound NOT metabolized”. The “Bacterial Biotransformation” value in [18] is reported as “Compound metabolized”; in data set [19], “Compound NOT metabolized”; in data set [11], “Compound metabolized”; in [12], “Compound NOT metabolized”; in data set [13] it was “Compound metabolized”.

Turning to `O=C(CCCN1CCC(O)(c2ccc(Cl)cc2)CC1)c1ccc(F)cc1` [HALOPERIDOL], the “Bacterial Biotransformation” value in [14], in data set [1], in data set [15], in [2], in [3] and in data set [4] was “Compound NOT metabolized” each time. Moreover, the “Bacterial Biotransformation” value in data set [5], in [16], in data set [17], in data set [6], in data set [7] and in data set [8] was “Compound NOT metabolized” throughout. The “Bacterial Biotransformation” value in [9], in [10], in data set [19], in [11], in data set [12] and in data set [13] was “Compound NOT metabolized” each time.

On to `CC(=O)OCC(CCn1cnc2cnc(N)nc21)COC(C)=O` [FAMCICLOVIR], for which the “Bacterial Biotransformation” value in data set [14] was “Compound metabolized”; in data set [1], “Compound metabolized”; in data set [15], “Compound NOT metabolized”; in data set [2] it was “Compound NOT metabolized”; in data set [3], “Compound NOT metabolized”; in data set [4], “Compound NOT metabolized”. Moreover, the “Bacterial Biotransformation” value was “Compound NOT metabolized” in data set [5]; “Compound NOT metabolized” in [16]; “Compound NOT metabolized” in data set [17]; “Compound NOT metabolized” in data set [6]; “Compound NOT metabolized” in [7]; “Compound metabolized” in data set [8]. Further, the “Bacterial Biotransformation” value in [9] is listed as “Compound NOT metabolized”; in data set [10], “Compound metabolized”; in data set [18], “Compound metabolized”; in data set [19], “Compound NOT metabolized”; in data set [11] it was “Compound metabolized”; in data set [13], “Compound metabolized”.

For the compound `Cc1ccc(NC(=O)c2ccc(CN3CCN(C)CC3)cc2)cc1Nc1nccc(-c2cccnc2)n1` [IMATINIB], the “Bacterial Biotransformation” value in data set [14], in [1], in data set [15], in [2], in data set [3] and in data set [4] was “Compound NOT metabolized” each time. In addition, the “Bacterial Biotransformation” value in [5], in data set [17], in [6], in [7], in [8] and in data set [9] was “Compound NOT metabolized” each time. Moreover, the “Bacterial Biotransformation” value in [10], in data set [19], in data set [11], in data set [12] and in data set [13] was “Compound NOT metabolized” each time.
